Data on 2 compounds can be found in ChEMBL document CHEMBL2073798, “P-Glycoprotein mediates the efflux of quinidine across the blood-brain barrier” (J Pharmacol Exp Ther, 1997).

Series [1] has as its target T1, ATP-dependent translocase ABCB1 (Mus musculus, UniProt P21447). The experiment in a line: TP_TRANSPORTER: increase in brain concentration in mdr1a(-/-) mouse. It is filed as functional, organism-based. As to conditions: in vivo.
For series [2], the target named is T1, ATP-dependent translocase ABCB1. In words: TP_TRANSPORTER: increase in Quinidine concentration in brain in FVB mouse. It is filed as functional, organism-based. As to conditions: in vivo.

T1 sequence (P21447 whole entry): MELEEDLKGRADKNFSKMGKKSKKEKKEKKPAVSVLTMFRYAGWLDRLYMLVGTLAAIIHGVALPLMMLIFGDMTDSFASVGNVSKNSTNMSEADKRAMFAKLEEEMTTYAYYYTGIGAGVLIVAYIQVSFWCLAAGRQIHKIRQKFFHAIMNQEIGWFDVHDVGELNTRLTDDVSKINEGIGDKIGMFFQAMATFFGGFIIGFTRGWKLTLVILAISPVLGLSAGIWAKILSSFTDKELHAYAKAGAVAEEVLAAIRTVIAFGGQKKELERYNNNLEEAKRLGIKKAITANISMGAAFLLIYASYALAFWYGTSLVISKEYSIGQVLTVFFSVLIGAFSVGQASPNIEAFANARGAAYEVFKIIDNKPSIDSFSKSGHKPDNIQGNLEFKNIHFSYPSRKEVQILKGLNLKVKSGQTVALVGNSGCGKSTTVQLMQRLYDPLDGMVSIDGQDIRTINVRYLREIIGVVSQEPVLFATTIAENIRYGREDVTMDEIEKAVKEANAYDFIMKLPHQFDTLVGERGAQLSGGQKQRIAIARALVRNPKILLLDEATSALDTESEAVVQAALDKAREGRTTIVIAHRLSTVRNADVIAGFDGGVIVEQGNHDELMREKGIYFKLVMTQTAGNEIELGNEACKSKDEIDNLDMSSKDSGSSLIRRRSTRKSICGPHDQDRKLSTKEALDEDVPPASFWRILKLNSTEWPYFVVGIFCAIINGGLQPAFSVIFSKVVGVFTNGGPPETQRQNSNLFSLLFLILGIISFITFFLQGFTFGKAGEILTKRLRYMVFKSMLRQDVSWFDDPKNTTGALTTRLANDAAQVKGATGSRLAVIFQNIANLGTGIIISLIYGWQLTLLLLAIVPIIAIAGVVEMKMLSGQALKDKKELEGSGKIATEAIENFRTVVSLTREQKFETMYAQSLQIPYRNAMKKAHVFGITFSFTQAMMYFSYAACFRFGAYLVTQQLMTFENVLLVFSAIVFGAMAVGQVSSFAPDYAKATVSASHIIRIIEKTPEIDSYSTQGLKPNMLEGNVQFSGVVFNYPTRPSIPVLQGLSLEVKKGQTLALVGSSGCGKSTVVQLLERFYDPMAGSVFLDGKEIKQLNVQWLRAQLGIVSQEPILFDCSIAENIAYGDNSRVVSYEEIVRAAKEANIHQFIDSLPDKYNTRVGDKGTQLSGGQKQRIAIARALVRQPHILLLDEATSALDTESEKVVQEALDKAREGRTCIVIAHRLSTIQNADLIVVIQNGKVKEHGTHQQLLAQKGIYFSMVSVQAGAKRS

In the case of `C=C[C@H]1C[N@@]2CC[C@H]1C[C@@H]2[C@@H](O)c1ccnc2ccc(OC)cc12` [QUINIDINE], the Activity result in series [1] is “substrate [+]”.

In turn, `C/C=C/C[C@@H](C)C(=O)[C@H]1C(=O)N[C@@H](C(C)C)C(=O)N(C)CC(=O)N(C)[C@@H](CC(C)C)C(=O)N[C@@H](C(C)C)C(=O)N(C)[C@@H](CC(C)C)C(=O)N[C@@H](C)C(=O)N[C@H](C)C(=O)N(C)[C@@H](CC(C)C)C(=O)N(C)[C@@H](CC(C)C)C(=O)N(C)[C@@H](C(C)C)C(=O)N1C` [VALSPODAR] registered an Activity in series [2] of 10.2 fold.
